Test results: article PMC7737769, “Pharmacological inhibition of syntenin PDZ2 domain impairs breast cancer cell activities and exosome loading with syndecan and EpCAM cargo” (Journal of Extracellular Vesicles, 2020)

Legend:
[1] = system: T1, GRASP55‐JAM‐B complex; test: HTRF assay, GRASP55-JAM-B interaction; type: biochemical, human; details: 400µM compound; Figure 1c
T1 construct: Human GRASP55 tandem PDZ; made in house; host or cells: E. coli BL21 (DE3)
Procedure: (§1) HTRF assays were performed in white 96Well Small VolumeHiBase Polystyrene Microplates (Greiner) with a total working volume of […], as described previously (Milhas et al., 2016). Briefly, compounds were firstly dispensed into the wells at 400 µM for the primary screen or with serial DMSO dilutions for IC50 measurement assays. Primary screening assays have been performed in monoplicate while IC50 measurements were performed in triplicates. All HTRF reagents were purchased from CisBio Bioassays and reconstituted according to the supplier protocols. The plates were spun for 3 min at 500 × g and then incubated at 4°C for 16 h. The HTRF signals were recorded on a POLAR star Omega plate reader (BMG Labtech) with an excitation filter at 337 nm and fluorescence wavelength measurement at 620 and 665 nm, an integration delay of 60 µs and an integration time of 400 µs. Results were analysed with a two‐wavelength signal ratio: [intensity (665 nm)/intensity (620 nm)] × 10^4. Percentage of inhibition was calculated using the following equation: % inhibition = [(compound signal)–(min signal)]/[(max signal)–(min signal)] × 100, where ‘max signal’ is the signal ratio with the compound vehicle alone (DMSO) and ‘min signal’ the signal ratio without protein B. For IC50 measurements, values were normalized and fitted with Prism (GraphPad software) using the following equation: Y = 100/(1+((X/ IC50)ˆHill slope)).
(§2) The search strategy for PDZ2 syntenin inhibitors was based on the PDZ targeted library developed from Enamine compound collection. The PDZ targeted library was developed to cover virtually all PDZ domains. Consequently, to create the syntenin PDZ2 focused library we used two independent paths: docking of the PDZ targeted library against structures of syntenin PDZ2 available in Protein Data Bank and a random selection from the PDZ targeted library. The docking has produced 21 virtual hits, which were added to 118 randomly selected compounds (10% of the pan PDZ library). The resultant set of 139 compounds, syntenin PDZ library was subjected to experimental validation. The primary screen was performed at 400µM using a previously validated Homogeneous Time Resolved Fluorescence (HTRF) assay (Milhas et al., 2016). HTRF is based on Fluorescence Resonance Energy Transfer (FRET) between two fluorescent reagents. In the present case, Anti‐GST‐Terbium antibody and streptavidin‐bound Dynamic2 were used as donor and acceptor respectively. Interactions between GST PDZ‐fusion proteins and biotinylated peptides containing PDZ binding motifs were challenged with the potential inhibitors. In parallel, control experiments were performed with a biotinylated‐GST to verify that compounds were not interfering with the FRET signal in a non‐specific manner. To identify inhibitors of syntenin PDZ interactions, we tested for the effect of the 139 compounds on syntenin‐SDC2 and syntenin‐Frizzled7 complexes (Figure 1a; Table S1). When the HTRF signal dropped below 0.9, inhibition was considered as effective. […] Noteworthy, these compounds had no effect on other PDZ complexes like GRASP55‐JAM‐B or GRASP55‐JAM‐C and Erbin‐Erbb2 or Erbin‐P0071 (Figure 1c).

[2] = molecular target: T2, syntenin‐SDC2 complex (GST-SyntFL / SDC2 peptide) (Homo sapiens, UniProt O00560); test: HTRF assay, syntenin-SDC2 interaction; type: biochemical; details: for GST SyntFL Syndecan 2 (signal ratio): 400µM compound, Figure 1c; for inhibition of syntenin PDZ interactions: HTRF primary screen, 400µM, syntenin-SDC2 and syntenin-Frizzled7; for HTRF ASSAY GST-SyntFL SDC2 (HTRF signal ratio): primary screen, 400 µM compound, signal below 0.9 considered effective inhibition, Table S1
T2 construct: residues 1–298 or syntenin full‐length (FL) for HTRF assays; made in house; host or cells: E. coli ER2566
T2 sequence (O00560 1-298): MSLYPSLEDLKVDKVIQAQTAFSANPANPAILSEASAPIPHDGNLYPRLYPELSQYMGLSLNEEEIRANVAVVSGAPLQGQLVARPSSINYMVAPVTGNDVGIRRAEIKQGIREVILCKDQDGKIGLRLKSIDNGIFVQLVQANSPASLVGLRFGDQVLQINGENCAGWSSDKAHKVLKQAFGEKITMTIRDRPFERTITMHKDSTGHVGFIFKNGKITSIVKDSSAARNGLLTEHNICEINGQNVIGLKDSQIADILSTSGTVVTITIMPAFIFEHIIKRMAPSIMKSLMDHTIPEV

[3] = system: T3, Erbin‐Erbb2 complex; test: HTRF assay, Erbin-ERBB2 interaction; type: biochemical, human; details: 400µM compound; Figure 1c
T3 construct: human Erbin PDZ domain; made in house; host or cells: E. coli BL21 (DE3)
Procedure: as §1, §2

[4] = system: T4, GRASP55‐JAM‐C complex; test: HTRF assay, GRASP55-JAM-C interaction; type: biochemical, human; details: 400µM compound; Figure 1c
T4 construct: Human GRASP55 tandem PDZ; made in house; host or cells: E. coli BL21 (DE3)
Procedure: as §1, §2

[5] = system: biotinylated‐GST; test: HTRF control with biotinylated-GST (non-specific interference with FRET signal); details: for GST-biot (signal ratio): 400µM compound, Figure 1c; for effect on control (biotinylated‐GST) FRET signals: HTRF primary screen, 400µM; for HTRF ASSAY GST-biot (HTRF signal ratio, control): primary screen, 400 µM compound, Table S1
Procedure: as §1, §2

[6] = system: T5, Erbin‐P0071 complex; test: HTRF assay, Erbin-P0071 interaction; type: biochemical, human; details: 400µM compound; Figure 1c
T5 construct: human Erbin PDZ domain; made in house; host or cells: E. coli BL21 (DE3)
Procedure: as §1, §2

[7] = system: T6, syntenin‐Frizzled7 complex (GST-SyntFL / FZD7 peptide); test: HTRF assay, syntenin-Frizzled 7 interaction; type: biochemical, human; details: for GST SyntFL Frizzled 7 (signal ratio): 400µM compound, Figure 1c; for HTRF ASSAY GST-SyntFL FZD7 (HTRF signal ratio): primary screen, 400 µM compound, signal below 0.9 considered effective inhibition, Table S1
T6 construct: residues 1–298 or syntenin full‐length (FL) for HTRF assays; made in house; host or cells: E. coli ER2566
Procedure: as §1, §2

| Compound | GST-GRASP JAM-B (signal ratio) [1] | GST SyntFL Syndecan 2 (signal ratio) [2] | inhibition of syntenin PDZ interactions [2] | HTRF ASSAY GST-SyntFL SDC2 (HTRF signal ratio) [2] | GST-Erbin ERBB2 (signal ratio) [3] | GST-GRASP JAM-C (signal ratio) [4] | GST-biot (signal ratio) [5] | effect on control (biotinylated‐GST) FRET signals [5] | HTRF ASSAY GST-biot (HTRF signal ratio, control) [5] | GST-Erbin P0071 (signal ratio) [6] | GST SyntFL Frizzled 7 (signal ratio) [7] | HTRF ASSAY GST-SyntFL FZD7 (HTRF signal ratio) [7] | inhibition at 400 µM ([2]; HTRF, 400 µM, syntenin-SDC2 and syntenin-Frizzled 7 complexes, read-out: extent of inhibition of Syntenin‐PDZ complexes) [%] |
| --- | --- | --- | --- | --- | --- | --- | --- | --- | --- | --- | --- | --- | --- |
| CC(C)[C@H](NC(=O)COc1ccc2ccccc2c1)C(=O)O [Compound C4] | 0.97 | 0.78 | inhibit | 0.78 | 1.02 | 0.89 | 0.97 | no significant effect | 1.02 | 0.89 | 0.78 | 0.77 |  |
| Cc1ccc(S(=O)(=O)N[C@H](C(=O)O)C(C)C)cc1C [Compound C47] | 1.1 | 0.78 | inhibit | 0.74 | 0.96 | 1 | 0.99 | no significant effect | 0.96 | 1 | 0.78 | 0.71 |  |
| CC(C)[C@H](NS(=O)(=O)c1ccc2c(c1)OCCCO2)C(=O)O [Compound C37] | 1 | 0.74 | inhibit | 0.73 | 1.04 | 1 | 0.97 | no significant effect | 1.04 | 0.95 | 0.7 | 0.68 |  |
| CC(C)[C@H](NS(=O)(=O)c1ccc2ccccc2c1)C(=O)O [Compound C38] | 1 | 0.58 | inhibit | 0.59 | 0.92 | 1 | 0.96 | no significant effect | 0.92 | 1 | 0.55 | 0.56 | 40 |
